Reference: PubChem BioAssay AID248 (DTP/NCI, 2004)
Where “and” joins values, the source holds several entries; their conditions need not be identical. Equal values may be shown once. Inconclusive results and toxic doses are left out.

System: L1210 leukemia ip in BDF1 mice, survival T/C
Experiment: NCI In Vivo Anticancer Drug Screen. Data for tumor model L1210 Leukemia (intraperitoneal) in B6D2F1 (BDF1) mice
Conditions: endpoint: mean survival time, higher = longer survival
In short: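 In this screen, tumor-bearing mice given compound are compared to those given vehicle, and their survival values are reported as a treated-to-control quotient.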

[1] = dose: 100.0 mg/kg/injection, schedule: Q01DX009 (ip), vehicle: saline with Tween-80
[2] = dose: 100.0 mg/kg/injection, schedule: Q04DX003 (ip), vehicle: saline with Tween-80
[3] = dose: 200.0 mg/kg/injection, schedule: Q01DX009 (ip), vehicle: saline with Tween-80
[4] = dose: 200.0 mg/kg/injection, schedule: Q04DX003 (ip), vehicle: saline with Tween-80
[5] = dose: 400.0 mg/kg/injection, schedule: Q04DX003 (ip), vehicle: saline with Tween-80
[6] = dose: 400.0 mg/kg/injection, schedule: Q01DX009 (ip), vehicle: saline with Tween-80
[7] = dose: 100.0 mg/kg/injection, schedule: Q01DX009 (ip), vehicle: Klucel (hydroxypropylcellulose) (HPC)
[8] = dose: 200.0 mg/kg/injection, schedule: Q01DX009 (ip), vehicle: Klucel (hydroxypropylcellulose) (HPC)
[9] = dose: 100.0 mg/kg/injection, schedule: Q04DX002 (ip), vehicle: saline with Tween-80
[10] = dose: 200.0 mg/kg/injection, schedule: Q04DX002 (ip), vehicle: saline with Tween-80
[11] = dose: 400.0 mg/kg/injection, schedule: Q04DX002 (ip), vehicle: saline with Tween-80
[12] = dose: 100.0 mg/kg/injection, schedule: Q01DX001 (ip), vehicle: saline
[13] = dose: 200.0 mg/kg/injection, schedule: Q01DX001 (ip), vehicle: saline
[14] = dose: 400.0 mg/kg/injection, schedule: Q01DX001 (ip), vehicle: saline
[15] = dose: 50.0 mg/kg/injection, schedule: Q01DX009 (ip), vehicle: saline
[16] = dose: 25.0 mg/kg/injection, schedule: Q01DX009 (ip), vehicle: saline
[17] = dose: 25.0 mg/kg/injection, schedule: Q04DX003 (ip), vehicle: saline
[18] = dose: 50.0 mg/kg/injection, schedule: Q04DX003 (ip), vehicle: saline
[19] = dose: 100.0 mg/kg/injection, schedule: Q01DX009 (ip), vehicle: saline
[20] = dose: 100.0 mg/kg/injection, schedule: Q04DX003 (ip), vehicle: saline

## CC1CCCCC12OCCO2 (stereo unspecified)
[1]
  T/C: 97 % of control
[2]
  T/C: 101 % of control
[3]
  T/C: 91 % of control
[4]
  T/C: 93 % of control
[5]
  T/C: 97 % of control

## CCCC(C=NCC(CCC)(CCN(C)C)c1cccc2ccccc12)(CCN(C)C)c1cccc2ccccc12 (stereo unspecified)
dose: 6.25 mg/kg/injection, schedule: Q04DX002 (ip), vehicle: Klucel (hydroxypropylcellulose) (HPC)
  T/C: 88 % of control
dose: 12.5 mg/kg/injection, schedule: Q04DX002 (ip), vehicle: Klucel (hydroxypropylcellulose) (HPC)
  T/C: 101 % of control
dose: 25.0 mg/kg/injection, schedule: Q04DX002 (ip), vehicle: Klucel (hydroxypropylcellulose) (HPC)
  T/C: 104 % of control

## O=C(O)Cc1ccc([N+](=O)[O-])cc1
[1]
  T/C: 90 % of control
[3]
  T/C: 93 % of control
[6]
  T/C: 94 % of control

## CCc1c(/C=C2/OC(=O)NC2=O)[nH]c(=S)[nH]c1=O
[2]
  T/C: 97 % of control
[4]
  T/C: 96 % of control
[5]
  T/C: 96 % of control

## CCCCN=C(NCCCC)OCCCC
dose: 11.1 mg/kg/injection, schedule: Q01DX Z (ip), vehicle: saline
  T/C: 104 % of control
dose: 16.6 mg/kg/injection, schedule: Q01DX Z (ip), vehicle: saline
  T/C: 100 % of control

## Cc1ccnc(NC(=O)NC2CCCCC2)c1
dose: 100.0 mg/kg/injection, schedule: Q04DX002 (ip), vehicle: Klucel (hydroxypropylcellulose) (HPC)
  T/C: 96 % of control
dose: 200.0 mg/kg/injection, schedule: Q04DX002 (ip), vehicle: Klucel (hydroxypropylcellulose) (HPC)
  T/C: 101 % of control
dose: 400.0 mg/kg/injection, schedule: Q04DX002 (ip), vehicle: Klucel (hydroxypropylcellulose) (HPC)
  T/C: 96 % of control

## C=CCNC(=S)Nc1ccc(N(C)C)cc1
dose: 50.0 mg/kg/injection, schedule: Q01DX009 (ip), vehicle: saline with Tween-80
  T/C: 94 % of control
[1]
  T/C: 100 % of control
[2]
  T/C: 103 % of control
[3]
  T/C: 103 % of control
[4]
  T/C: 95 % of control

## CC(=O)OCC1OC(SP(C)C)C(OC(C)=O)C(OC(C)=O)C1OC(C)=O (stereo unspecified)
dose: 100.0 mg/kg/injection, schedule: Q01DX001 (ip), vehicle: Klucel (hydroxypropylcellulose) (HPC)
  T/C: 101 % of control
dose: 200.0 mg/kg/injection, schedule: Q01DX001 (ip), vehicle: Klucel (hydroxypropylcellulose) (HPC)
  T/C: 98 % of control
dose: 400.0 mg/kg/injection, schedule: Q01DX001 (ip), vehicle: Klucel (hydroxypropylcellulose) (HPC)
  T/C: 96 % of control

## Ic1ncnc2nc[nH]c12
dose: 56.0 mg/kg/injection, schedule: Q01DX Z (ip), vehicle: carboxymethylcellulose (CMC)
  T/C: 104 % of control
dose: 62.5 mg/kg/injection, schedule: Q01DX Z (ip), vehicle: carboxymethylcellulose (CMC)
  T/C: 115 % of control
[7]
  T/C: 118 % of control
dose: 100.0 mg/kg/injection, schedule: Q04DX003 (ip), vehicle: other
  T/C: 106 % of control
dose: 112.0 mg/kg/injection, schedule: Q01DX Z (ip), vehicle: carboxymethylcellulose (CMC)
  T/C: 121 % of control
dose: 125.0 mg/kg/injection, schedule: Q01DX Z (ip), vehicle: carboxymethylcellulose (CMC)
  T/C: 110 % of control
dose: 132.0 mg/kg/injection, schedule: Q01DX009 (ip), vehicle: saline
  T/C: 122 % of control
[8]
  T/C: 119 % of control
dose: 200.0 mg/kg/injection, schedule: Q01DX009 (ip), vehicle: saline
  T/C: 120 % of control
dose: 200.0 mg/kg/injection, schedule: Q04DX003 (ip), vehicle: other
  T/C: 103 % of control
dose: 300.0 mg/kg/injection, schedule: Q01DX009 (ip), vehicle: Klucel (hydroxypropylcellulose) (HPC)
  T/C: 151 % of control
dose: 400.0 mg/kg/injection, schedule: Q04DX003 (ip), vehicle: other
  T/C: 103 % of control

## Nc1cc(Cl)[nH]c(=O)n1
dose: 100.0 mg/kg/injection, schedule: Q01DX009 (ip), vehicle: gum acacia
  T/C: 100 % of control
dose: 200.0 mg/kg/injection, schedule: Q01DX009 (ip), vehicle: gum acacia
  T/C: 89 % of control

## C=C1CCC(C)(C2(c3ccccc3)OCCO2)CC1
[9]
  T/C: 98 % of control
[10]
  T/C: 95 % of control
[11]
  T/C: 91 % of control

## C=C1C(=O)N(C)C(C(=O)OC)CC1(O)C(CC)C(=O)OC (stereo unspecified)
dose: 18.7 mg/kg/injection, schedule: Q01DX001 (ip), vehicle: saline
  T/C: 94 % of control
dose: 37.5 mg/kg/injection, schedule: Q01DX001 (ip), vehicle: saline
  T/C: 98 % of control
dose: 75.0 mg/kg/injection, schedule: Q01DX001 (ip), vehicle: saline
  T/C: 117 % of control
dose: 150.0 mg/kg/injection, schedule: Q01DX001 (ip), vehicle: saline
  T/C: 102 % of control

## O=[N+]([O-])c1ccccc1-c1ccccc1[N+](=O)[O-]
[9]
  T/C: 97 % of control
[10]
  T/C: 90 % of control
[11]
  T/C: 87 % of control

## Cc1cc(Cl)nc2ccc(Cc3ccc(Cl)cc3)cc12
[12]
  T/C: 97 % of control
[13]
  T/C: 92 % of control
[14]
  T/C: 93 % of control

## BrP(Nc1ccccc1)(c1ccccc1)(c1ccccc1)c1ccccc1
dose: 10.0 mg/kg/injection, schedule: Q01DX001 (ip), vehicle: acetone
  T/C: 100 % of control
dose: 20.0 mg/kg/injection, schedule: Q01DX001 (ip), vehicle: acetone
  T/C: 101 % of control
dose: 40.0 mg/kg/injection, schedule: Q01DX001 (ip), vehicle: acetone
  T/C: 91 % of control

## CCCCCCOC(=O)Nc1ccc(S(=O)(=O)N(CCC)CCC)cc1
[12]
  T/C: 97 % of control
[13]
  T/C: 95 % of control
[14]
  T/C: 97 % of control

## C/C(=N\O)C(C)C
dose: 100.0 mg/kg/injection, schedule: Q01DX001 (ip), vehicle: saline with Tween-80
  T/C: 93 % of control
[1]
  T/C: 100 % of control
dose: 200.0 mg/kg/injection, schedule: Q01DX001 (ip), vehicle: saline with Tween-80
  T/C: 101 % of control
[3]
  T/C: 98 % of control
dose: 400.0 mg/kg/injection, schedule: Q01DX001 (ip), vehicle: saline with Tween-80
  T/C: 98 % of control
[6]
  T/C: 92 % of control

## O=C1NNC(=O)C2C3CCC(C3)C12 (stereo unspecified)
[15]
  T/C: 98 % of control

## Nc1ccc(N=Nc2ccc(C(=O)Nc3ccc4cc(S(=O)(=O)O)ccc4c3)cc2)c(N)c1N=Nc1ccc(N=Nc2ccc(O)c(C(=O)O)c2)cc1
dose: 25.0 mg/kg/injection, schedule: Q01DX001 (ip), vehicle: saline
  T/C: 94 % of control
[16]
  T/C: 105 % of control
[17]
  T/C: 109 % of control
dose: 50.0 mg/kg/injection, schedule: Q01DX001 (ip), vehicle: saline
  T/C: 90 % of control
[15]
  T/C: 94 % of control
[18]
  T/C: 95 % of control
[12]
  T/C: 97 % of control
[19]
  T/C: 87 % of control
[20]
  T/C: 102 % of control

## Cc1cc(CCl)c(C)c(Br)c1C
dose: 6.25 mg/kg/injection, schedule: Q01DX009 (ip), vehicle: Klucel (hydroxypropylcellulose) (HPC)
  T/C: 95 % of control
dose: 12.5 mg/kg/injection, schedule: Q01DX009 (ip), vehicle: Klucel (hydroxypropylcellulose) (HPC)
  T/C: 90 % of control
dose: 25.0 mg/kg/injection, schedule: Q01DX009 (ip), vehicle: Klucel (hydroxypropylcellulose) (HPC)
  T/C: 89 % of control
dose: 50.0 mg/kg/injection, schedule: Q01DX009 (ip), vehicle: Klucel (hydroxypropylcellulose) (HPC)
  T/C: 92 % of control

## CN(N)P(=O)(c1ccccc1)N(C)N
[16]
  T/C: 103 % of control
[17]
  T/C: 101 % of control
[15]
  T/C: 100 % of control
[18]
  T/C: 98 % of control
[20]
  T/C: 104 % of control and 105 % of control

## O=C(Nc1ccc(O)cc1)c1ccc([N+](=O)[O-])cc1
[7]
  T/C: 94 % of control
[8]
  T/C: 95 % of control
dose: 400.0 mg/kg/injection, schedule: Q01DX009 (ip), vehicle: Klucel (hydroxypropylcellulose) (HPC)
  T/C: 100 % of control

## CCN1CCc2ccccc2C1c1ccccc1 (stereo unspecified)
[16]
  T/C: 104 % of control
[15]
  T/C: 103 % of control
[19]
  T/C: 106 % of control and 115 % of control
